The values that follow come from patent publication US6506799B1, “Methods of treating cardiovascular diseases, dyslipidemia, dyslipoproteinemia, and hypertension with ether compounds” (Esperion Therapeutics, Inc., priority 1999, dated 2003).

Each structure is given as a SMILES string.

Data set [1] has as its system chow fed male Sprague-Dawley rats. Kind of data set: Serum lipids, apolipoproteins and weight gain in chow fed male Sprague-Dawley rats after seven days of treatment. Particulars: 100 mg/kg/day oral gavage, 7 days; normalized against vehicle control. The class given is in vivo, rat. The procedure:
Illustrative compounds of the invention were administered daily at a dose of 100 mg/kg to chow fed male Sprague-Dawley rats for seven days in the morning by oral gavage in 1.5% carboxymethylcellulose/0.2% Tween-20 (dosing vehicle). Animals were weighed daily. Animals were allowed free access to rodent chow and water throughout the study. After the seventh dose, animals were sacrificed in the evening and blood serum was assayed for lipoprotein cholesterol profiles, serum triglycerides, total cholesterol VLDL, LDL, and HDL cholesterol, and the ratio of HDL cholesterol to that of VLDL plus LDL cholesterol, apolipoproteins A-I, C-II, C-III, and E by immunoelectrophoresis, and percent weight gain.
The five compounds were tested in two separate experiments. In each experiment, the experimental data were normalized against a control group of rats which received the dosing vehicle alone.

For data set [2], the system named is chow fed obese female Zucker rats. Kind of data set: Experiments B, C, D, E: serum lipids, glucose, insulin, body and liver weight in obese female Zucker rats, 14 days. Type of data set: in vivo, rat. Particulars: for Body Weight Gain (% of Pretreatment) / HDL-Cholesterol (% of Pretreatment) / Non HDL-Cholesterol (% of Pretreatment) / Triglycerides (% of Pretreatment): 14 days. The procedure: In a number of different experiments, illustrative compounds of the invention and troglitazone were administered daily at various doses to 10-week old chow fed obese female Zucker rats for 14 days in the morning by oral gavage in 1.5% carboxymethylcellulose/0.2% Tween-20 (dosing vehicle). Animals were weighed daily. Animals were allowed free access to rodent chow and water throughout the study. Blood glucose was determined after a 6-hour fast in the afternoon without anesthesia from a tail vein. Serum was also prepared from a blood sample subsequently obtained from the orbital venous plexus (with O2/CO2 anesthesia) prior to and after one week treatment and used lipid and insulin determinations. At two weeks, blood glucose was again determined after a 6-hour fast without anesthesia from a tail vein. Soon thereafter, animals were sacrificed by CO2 inhalation in the evening and cardiac blood serum was collected and assessed for various lipids and insulin. Body weight was determined daily prior to dosing and at the time of euthanasia.

Another data set relates to primary rat hepatocytes. Kind of data set: Synthesis of non-saponified and saponified lipids (14C-acetate incorporation) in hepatocytes. Type of data set: cell-based. Particulars: 100 μM; 14C-acetate 2 hr; vs no compound control. As to the method:
A male Sprague-Dawley rat was anesthetized by administration of sodium pentobarbitol by intraparitoneal injection at 50 mg/kg. In situ perfusion of the liver was performed as follows. […] To digest the liver, DSC solution (6.7 mM KCl, 143 mM NaCl, 9.2 mM Na HEPES, 5 mM CaCl2-2H2O, 1.7 mM Fructose, 0.029 mM Phenol red, 0.2% BSA, 100 U/ml collagenase Type I, 93 U/ml Hyaluronidase, 160 BAEE/ml trypsin inhibitor, pH 7.5) was perfused through the liver at a flow rate of 30 ml/min for 6 minutes at a temperature of 37° C. After digestion, cells were dispersed in a solution of DMEM-(DMEM containing 2 mM GlutMax-1, 0.2% BSA, 5% FBS, 12 nM insulin, 1.2 μM hydrocortisone) to stop the digestion process. The crude cell suspension was filtered through three layers of stainless steel mesh with pore sizes of 250, 106, and 75 μm respectively. Filtered cells were centrifuged at 50×g for two minutes and the supernatant discarded. The resulting cell pellet was resuspended in DMEM and centrifuged again. This final cell pellet was resuspended in DMEM+HS solution (DMEM containing 2 mM GlutMax-1, 20 nM delta-aminolevulinic acid, 17.4 mM MEM non-essential amino acids, 20% FBS, 12 nM insulin, 1.2 µM hydrocortisone) and plated to form monolayer cultures at a density of 100×10^3 cells/cm^2 on collagen coated culture dishes. Four hours after initial plating, media was changed to DMEM+(DMEM containing 2 mM GlutMax-1, 20 nM delta-aminolevulinic acid, 17.4 mM MEM non-essential amino acids, 10% FBS, 12 nM insulin, 1.2 μM hydrocortisone) and remained on cells overnight.
To test the effect of illustrative compounds of the invention on synthesis rates of non-saponified and saponified lipids, the monolayer cultures were exposed to 1 μM of lovastatin or 100 μM Compound A, B, D, E or F in DMEM+ containing 1 μCi/ml ^14C-acetate. Control cells were exposed to the same media lacking lovastatin or the test compounds. All cells were exposed to 0.1% DMSO. Metabolic labeling with ^14C-acetate continued for 2 hr at 37° C. After labeling, cells were washed twice with 1 ml of PBS followed by lysing in 1 ml of deionized water. Cells were scraped from the dishes, transferred to glass tubes and sonicated. 2.5 ml of 2:1 chloroform/methanol mixture was added followed by 1.5 ml of Phosphate Buffered Saline (PBS). To correct for extraction efficiency in the upcoming extractions, 3000 dpm of ^3H-cholesterol was added to each tube. Tubes were shaken for 30 min. to extract lipids into the organic phase followed by centrifugation for 10 minutes at 1000×g to separate the organic and aqueous phases. The lower organic phase containing total lipids was removed and placed in a new tube. The organic solution was evaporated under N2. […]

The next data set deals with female obese Zucker rats. Kind of data set: Experiment A: serum lipids, glucose, non-esterified fatty acids and weight gain in obese female Zucker rats after seven days. Type of data set: in vivo, rat. Particulars: 120 mg/kg. As to the method:
Dosing vehicle, Compound A (86 mg/kg of body weight) or troglitazone (120 mg/kg of body weight) was administered to eight week old female obese Zucker rats daily for seven days in the morning by oral gavage in 1.5% carboxymethylcellulose/0.2% Tween-20. Troglitazone was obtained commercially. Finely crushed tablets were suspended in vehicle for dosing. Orbital blood samples were obtained following a six-hour fast prior to the initial dose and also following the seventh dose.
Blood serum was assayed for total cholesterol and triglycerides (FIG. 5), lipoprotein cholesterol profiles (FIG. 6), VLDL plus LDL cholesterol combined (also referred to as apo B containing lipoprotein cholesterol or non-HDL cholesterol), HDL cholesterol, and the ratio of HDL cholesterol to that of VLDL plus LDL cholesterol (FIG. 7), serum glucose, and non-esterified fatty acids (FIG. 8), and percent weight gain (FIG. 9). […] In particular, Compound A caused a marked elevation in HDL cholesterol after one week of treatment. Using the serum total cholesterol values (FIG. 5A) and the lipoprotein cholesterol distribution (FIG. 6), the amount of cholesterol associated with non-HDL (i.e., VLDL plus LDL) and HDL were determined (FIG. 7). […] In contrast, troglitazone reduced non-HDL and HDL cholesterol by 67% and 4%, respectively.

For `CC(C)(CCCCOCCCCC(C)(C)OP(=O)(O)O)OP(=O)([O-])[O-].[Na+].[Na+]` [Compound B, phosphoric acid mono-(1,1-dimethyl-5-(5-methyl-5-phosphonooxy-hexyloxy)-pentyl)ester sodium salt], in data set [1], the “HDL-Cholesterol (% change)” value was “+40.7 % change”, the “LDL-Cholesterol (% change)” value is reported as “+23.2 % change” and the “Triglyceride (% change)” value is listed as −31.1 % change. In data set [2] (Experiment B, 100 mg/kg/day), the “Body Weight Gain (% of Pretreatment)” value was “+12.0 % of Pretreatment”, the “HDL-Cholesterol (% of Pretreatment)” value is recorded as −23.3 % of Pretreatment, the “Non HDL-Cholesterol (% of Pretreatment)” value is “+257.1 % of Pretreatment” and the “Triglycerides (% of Pretreatment)” value is “+24.6 % of Pretreatment”.

Take `CC(C)(CCCCOCCCCC(C)(C)OP(=O)(OCc1ccccc1)OCc1ccccc1)OP(=O)(OCc1ccccc1)OCc1ccccc1` [Compound C, phosphoric acid dibenzyl ester 5-(5-(bis-benzyloxy-phosphoryloxy)-5-methyl-hexyloxy)-1,1-dimethyl-pentyl ester]: in data set [1], the “HDL-Cholesterol (% change)” value is on record as “+11.6 % change”, the “LDL-Cholesterol (% change)” value was −4.0 % change and the “Triglyceride (% change)” value was “+32.6 % change”.

In the case of `CC(C)(CCCOCCCC(C)(C)OP(=O)(O)O)OP(=O)([O-])[O-].[Na+].[Na+]` [Compound D, phosphoric acid mono-(1,1-dimethyl-4-(4-methyl-4-phosphonooxy-pentyloxy)-butyl)ester sodium salt], in data set [1], the “HDL-Cholesterol (% change)” value is “+13.3 % change”, the “LDL-Cholesterol (% change)” value is recorded as −17.0 % change and the “Triglyceride (% change)” value is given as “+28.0 % change”.

Take `CC(C)(CCCOCCCC(C)(C)OP(=O)(OCc1ccccc1)OCc1ccccc1)OP(=O)(OCc1ccccc1)OCc1ccccc1` [Compound E, phosphoric acid dibenzyl ester 4-(4-(bis-benzyloxy-phosphoryloxy)-4-methyl-pentyloxy)-1,1-dimethyl-butyl ester]: in data set [1], the “HDL-Cholesterol (% change)” value is given as “+49.1 % change”, the “LDL-Cholesterol (% change)” value was −41.0 % change and the “Triglyceride (% change)” value is −30.5 % change. Also, the “rates of saponified fatty acid synthesis” value with primary rat hepatocytes is “reduced the rates of saponified fatty acid synthesis”.

As to `CC(C)(O)CCCCOCCCCC(C)(C)O` [Compound F, 6-(5-hydroxy-5-methyl-hexyloxy)-2-methyl-hexan-2-ol], in the data set with primary rat hepatocytes, the “rates of saponified fatty acid synthesis” value was “reduced the rates of saponified fatty acid synthesis”.

For `Cc1c(C)c2c(c(C)c1O)CCC(C)(COc1ccc(CC3SC(=O)NC3=O)cc1)O2` (stereo not drawn) [troglitazone, reference compound], in the data set on female obese Zucker rats (one week), the “reduction of HDL cholesterol” value came to 4%, the “reduction of non-HDL cholesterol” value came out at 67% and the “reduction of non-esterified fatty acids” value was 65%. In addition, the “increase in weight gain” value with female obese Zucker rats (seven days, vehicle 6.6%) is listed as “+11.6%”. In addition, in data set [2] (Experiment B, 120 mg/kg/day), the “Body Weight Gain (% of Pretreatment)” value is “+21.7 % of Pretreatment”, the “HDL-Cholesterol (% of Pretreatment)” value is “+44.2 % of Pretreatment”, the “Non HDL-Cholesterol (% of Pretreatment)” value was −44.0 % of Pretreatment and the “Triglycerides (% of Pretreatment)” value is on record as −76.6 % of Pretreatment. Also, in data set [2] (Experiment C, 12 mg/kg/day), the “Body Weight Gain (% of Pretreatment)” value is recorded as “+20.2 % of Pretreatment”, the “HDL-Cholesterol (% of Pretreatment)” value is on record as “+1.9 % of Pretreatment”, the “Non HDL-Cholesterol (% of Pretreatment)” value is −10.6 % of Pretreatment and the “Triglycerides (% of Pretreatment)” value is recorded as “+10.7 % of Pretreatment”. Besides, in data set [2] (Experiment C, 40 mg/kg/day), the “Body Weight Gain (% of Pretreatment)” value is “+21.2 % of Pretreatment”, the “HDL-Cholesterol (% of Pretreatment)” value is on record as “+36.1 % of Pretreatment”, the “Non HDL-Cholesterol (% of Pretreatment)” value was −50.5 % of Pretreatment and the “Triglycerides (% of Pretreatment)” value is −59.6 % of Pretreatment. In data set [2] (Experiment C, 120 mg/kg dose), this compound returned an HDL increase of 122%. Also, in data set [2] (Experiment C, 120 mg/kg/day), the “Body Weight Gain (% of Pretreatment)” value was “+25.5 % of Pretreatment”, the “HDL-Cholesterol (% of Pretreatment)” value was “+122.4 % of Pretreatment”, the “Non HDL-Cholesterol (% of Pretreatment)” value is −67.5 % of Pretreatment and the “Triglycerides (% of Pretreatment)” value is −79.2 % of Pretreatment. For the same compound, in data set [2] (Experiment C, all doses, after two weeks, FIG. 16), the “percent liver to body weight” value is recorded as “reduced at all doses”. In data set [2] (Experiment D, 120 mg/kg/day), the “Body Weight Gain (% of Pretreatment)” value is given as “+13.8 % of Pretreatment”, the “HDL-Cholesterol (% of Pretreatment)” value is reported as “+41.3 % of Pretreatment”, the “Non HDL-Cholesterol (% of Pretreatment)” value was −51.0 % of Pretreatment and the “Triglycerides (% of Pretreatment)” value is on record as −65.9 % of Pretreatment. Besides, in data set [2] (Experiment E, 120 mg/kg/day), the “Body Weight Gain (% of Pretreatment)” value is recorded as “+14.4 % of Pretreatment”, the “HDL-Cholesterol (% of Pretreatment)” value is given as “+47.9 % of Pretreatment”, the “Non HDL-Cholesterol (% of Pretreatment)” value is −67.4 % of Pretreatment and the “Triglycerides (% of Pretreatment)” value is recorded as −69.4 % of Pretreatment.
